# According to patent US8344135B2, “Heterocyclic compound and use thereof” (Takeda Pharmaceutical Company Limited, priority 2007, dated 2013):
# Target: T1, BRAF (V600E) (Homo sapiens, UniProt P15056, V600E)
# T1 construct: area encoding the BRAF kinase domain region, so that the protein contains an N-terminal Flag; made in house; host or cells: SF-21 insect cells infected with recombinant baculovirus BAC-V600E
# Assay: Determination of BRAF (V600E) kinase inhibitory activity
# Assay type: biochemical
# Details: test compound 1.0 μM; substrate GST-MEK1 (K96R); [γ-32P]ATP; read-out: Inhibitory rate (%) at 1.0 μM
# Procedure: Determination of BRAF (V600E) Kinase Inhibitory Activity
# A test compound (2.5 μL) dissolved in dimethyl sulfoxide (DMSO) was added to 37.5 μL of a reaction solution (25 mM HEPES (pH 7.5), 10 mM magnesium acetate, 1 mM dithiothreitol) containing BRAF (V600E) enzyme (30 ng) and recombinant type protein GST-MEK1 (K96R) 250 ng, and the mixture was incubated at room temperature for 10 min. ATP solution (10 μL, 2.5 μM ATP, 0.1 μCi [γ-^32P]ATP) was added to the obtained mixture, and the mixture was reacted at room temperature for 20 min. The reaction was quenched by adding 50 μL of ice-cooled 20% trichloroacetic acid (Wako Pure Chemical Industries, Ltd.). The reaction solution was allowed to stand at 4° C. for 30 min, and the acid-precipitable fraction was transferred to GF/C filter plate (Millipore Corporation) using cell harvester (PerkinElmer). The plate was dried at 45° C. for 60 min, and 40 μL of MicroScinti 0 (PerkinElmer) was added thereto. The radioactivity was measured using TopCount (PerkinElmer). The kinase inhibitory rate (%) of the test compound was calculated by the following formula: Inhibitory rate (%)=(1−(count of test compound−blank)÷(control−blank))×100
# The count of the solution reacted without addition of the compound was used as a “control”, and the count of the solution without the compound and enzyme was used as a “blank”.
# T1 sequence (P15056 457-717 V600E limits assumed): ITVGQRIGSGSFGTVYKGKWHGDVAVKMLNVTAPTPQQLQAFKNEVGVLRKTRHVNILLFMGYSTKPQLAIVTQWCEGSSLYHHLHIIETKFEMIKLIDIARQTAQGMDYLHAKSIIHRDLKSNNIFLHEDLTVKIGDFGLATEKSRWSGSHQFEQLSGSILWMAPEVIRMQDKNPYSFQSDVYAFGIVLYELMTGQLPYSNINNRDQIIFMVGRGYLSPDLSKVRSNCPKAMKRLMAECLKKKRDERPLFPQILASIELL
row,Compound,inhibition at 1 µM
1,"CC(C)(C#N)c1cccc(C(=O)Nc2cc(Oc3ccc4nc(NC(=O)C5CC5)sc4n3)ccc2F)c1Cl [Example C63, 2-chloro-3-(1-cyano-1-methylethyl)-N-[5-({2-[(cyclopropylcarbonyl)amino][1,3]thiazolo[5,4-b]pyridin-5-yl}oxy)-2-fluorophenyl]benzamide]",101%
2,"N#CC1(c2cccc(C(=O)Nc3cc(Oc4ccc5nc(NC(=O)C6CC6)sc5n4)c(F)cc3F)c2Cl)CC1 [Example C75, 2-chloro-3-(1-cyanocyclopropyl)-N-[5-({2-[(cyclopropylcarbonyl)amino][1,3]thiazolo[5,4-b]pyridin-5-yl}oxy)-2,4-difluorophenyl]benzamide]",100%

# Results, then the molecule that gave them:
row,inhibition at 1 µM,Compound
1,100%,"CC(C)(C#N)c1cccc(C(=O)Nc2cc(Oc3ccc4nc(NC(=O)C5CC5)sc4n3)c(Cl)cc2F)c1 [Example C60, N-[4-chloro-5-({2-[(cyclopropylcarbonyl)amino][1,3]thiazolo[5,4-b]pyridin-5-yl}oxy)-2-fluorophenyl]-3-(1-cyano-1-methylethyl)benzamide]"
2,100%,"CN1CCN(CC(=O)Nc2nc3ccc(Oc4cccc(NC(=O)c5cccc(C(F)(F)F)c5)c4)nc3s2)CC1 [Example C22, N-{3-[(2-{[(4-methylpiperazin-1-yl)acetyl]amino}[1,3]thiazolo[5,4-b]pyridin-5-yl)oxy]phenyl}-3-(trifluoromethyl)benzamide]"
3,100%,"COc1ccc(NC(=O)c2cccc(C3(C#N)CC3)c2)cc1Oc1ccc2nc(NC(=O)C3CC3)sc2n1 [Example C1, 3-(1-cyanocyclopropyl)-N-[3-({2-[(cyclopropylcarbonyl)amino][1,3]thiazolo[5,4-b]pyridin-5-yl}oxy)-4-methoxyphenyl]benzamide]"
4,99%,"Cc1ccc(NC(=O)c2cccc(C(F)(F)F)c2)cc1Oc1ccc2nc(NC(=O)C3CC3)sc2n1 [Example C8, N-[3-({2-[(cyclopropylcarbonyl)amino][1,3]thiazolo[5,4-b]pyridin-5-yl}oxy)-4-methylphenyl]-3-(trifluoromethyl)benzamide]"
5,99%,"Cc1ccc(NC(=O)c2cccc(C3(C#N)CC3)c2)cc1Oc1ccc2nc(NC(=O)CO)sc2n1 [Example C17, 3-(1-cyanocyclopropyl)-N-(3-{[2-(glycoloylamino)[1,3]thiazolo[5,4-b]pyridin-5-yl]oxy}-4-methylphenyl)benzamide]"
6,100%,"O=C(Nc1cccc(Nc2ccc3nc(NC(=O)C4CC4)sc3n2)c1)c1cccc(C(F)(F)F)c1 [Example C41, N-[3-({2-[(cyclopropylcarbonyl)amino][1,3]thiazolo[5,4-b]pyridin-5-yl}amino)phenyl]-3-(trifluoromethyl)benzamide]"

# Test system: human colon cancer cell HT-29
# Assay: Colon cancer cell HT-29 growth suppressive action in vitro
# Assay type: cell-based
# Details: 72 h, HT-29 cells, 3 days culture, SRB staining, read-out: IC50 (nM), cell growth suppression
# Procedure: Colon Cancer Cell HT-29 Growth Suppressive Action in vitro
# A cell suspension (100 μL, 3,000 cells/well) of human colon cancer cell HT-29 (purchased from ATCC) was plated in a 96-well plate, and the cells were cultured at 37° C. in a 5% carbon dioxide gas incubator. The next day, 2-fold serial dilution of each test compound solution (diluted from maximum concentration 20 μM) (100 μL) was added, and the cells were cultured for 3 days. The culture medium containing the test compound was removed, and the cells were washed with phosphate buffer (PBS). A 50% trichloroacetic acid solution was added to the final concentration of 10% (v/v), and the mixture was stood overnight at 4° C., whereby the cells were fixed to the plate. Then, a dye SRB 0.4% (w/v) solution (dissolved in 1% acetic acid) was added at 50 μl/well, whereby the cell protein was fixed and stained (Skehan et al., Journal Of National Cancer Institute, vol. 82, pp. 1107-1112, 1990). The cells were washed 3 times with 1% acetic acid solution (200 μL/well), and 100 μL of an extract (10 mM Tris buffer) was added to extract the dye. The absorbance at an absorption wavelength […] was measured, and cell amount was measured as a protein amount.
row,Compound,IC50
1,"CC(C)(C#N)Oc1cccc(C(=O)Nc2cc(Nc3ccc4nc(NC(=O)C5CC5)sc4n3)ccc2F)c1Cl [Example C126, 2-chloro-3-(1-cyano-1-methylethoxy)-N-[5-({2-[(cyclopropylcarbonyl)amino][1,3]thiazolo[5,4-b]pyridin-5-yl}amino)-2-fluorophenyl]benzamide]",< 500 nM
2,"CC(C)(C#N)c1cccc(C(=O)Nc2cccc(Oc3ccc4nc(NC(=O)CO)sc4n3)c2)c1 [Example C24, 3-(1-cyano-1-methylethyl)-N-(3-{[2-(glycoloylamino)[1,3]thiazolo[5,4-b]pyridin-5-yl]oxy}phenyl)benzamide]",< 500 nM
3,"CN1CCN(CC(=O)Nc2nc3cnc(N(C)c4cccc(NC(=O)c5cccc(C(C)(C)C#N)c5)c4)nc3s2)CC1 [Example D11, 3-(1-cyano-1-methylethyl)-N-{3-[methyl(2-{[(4-methylpiperazin-1-yl)acetyl]amino}[1,3]thiazolo[5,4-d]pyrimidin-5-yl)amino]phenyl}benzamide]",< 500 nM
4,"N#CC1(c2cccc(C(=O)Nc3cc(Oc4ccc5nc(NC(=O)C6CC6)sc5n4)ccc3F)c2Cl)CC1 [Example C66, 2-chloro-3-(1-cyanocyclopropyl)-N-[5-({2-[(cyclopropylcarbonyl)amino][1,3]thiazolo[5,4-b]pyridin-5-yl}oxy)-2-fluorophenyl]benzamide]",< 500 nM
5,"CN1CCN(CC(=O)Nc2nc3ccc(Oc4cccc(NC(=O)c5cccc(C6(C#N)CC6)c5)c4)nc3s2)CC1 [Example C28, 3-(1-cyanocyclopropyl)-N-{3-[(2-{[(4-methylpiperazin-1-yl)acetyl]amino}[1,3]thiazolo[5,4-b]pyridin-5-yl)oxy]phenyl}benzamide]",< 500 nM
6,"Cc1ccc(NC(=O)c2cccc(C3(C#N)CC3)c2)cc1Oc1ccc2nc(NC(=O)CN3CCN(C)CC3)sc2n1 [Example C19, 3-(1-cyanocyclopropyl)-N-{4-methyl-3-[(2-{[(4-methylpiperazin-1-yl)acetyl]amino}[1,3]thiazolo[5,4-b]pyridin-5-yl)oxy]phenyl}benzamide]",< 500 nM
7,"Cc1ccc(NC(=O)c2cccc(C(C)(C)C#N)c2)cc1Nc1ncc2nc(NC(=O)CN3CCN(C)CC3)sc2n1 [Example D33, 3-(1-cyano-1-methylethyl)-N-{4-methyl-3-[(2-{[(4-methylpiperazin-1-yl)acetyl]amino}[1,3]thiazolo[5,4-d]pyrimidin-5-yl)amino]phenyl}benzamide]",< 500 nM
8,"CN(c1ccc(F)c(NC(=O)c2cccc(OC(C)(C)C#N)c2Cl)c1)c1ccc2nc(NC(=O)C3CC3)sc2n1 [Example C122, 2-chloro-3-(1-cyano-1-methylethoxy)-N-{5-[{2-[(cyclopropylcarbonyl)amino][1,3]thiazolo[5,4-b]pyridin-5-yl}(methyl)amino]-2-fluorophenyl}benzamide]",< 500 nM
9,"CC(=O)Nc1nc2cnc(Nc3cc(NC(=O)c4cccc(C(C)(C)C#N)c4Cl)ccc3C)nc2s1 [Example D35, N-(3-{[2-(acetylamino)[1,3]thiazolo[5,4-d]pyrimidin-5-yl]amino}-4-methylphenyl)-2-chloro-3-(1-cyano-1-methylethyl)benzamide]",< 500 nM

# Other lines, results leading:
row,IC50,Compound
1,< 500 nM,"CC(C)(C#N)c1cccc(C(=O)Nc2cccc(Oc3ccc4nc(NC(=O)C5CC5)sc4n3)c2)c1 [Example C23, 3-(1-cyano-1-methylethyl)-N-[3-({2-[(cyclopropylcarbonyl)amino][1,3]thiazolo[5,4-b]pyridin-5-yl}oxy)phenyl]benzamide]"
2,< 500 nM,"Cc1ccc(NC(=O)c2cccc(C(C)(C)C#N)c2)cc1Oc1ccc2nc(NC(=O)C3CC3)sc2n1 [Example C12, 3-(1-cyano-1-methylethyl)-N-[3-({2-[(cyclopropylcarbonyl)amino][1,3]thiazolo[5,4-b]pyridin-5-yl}oxy)-4-methylphenyl]benzamide]"
3,< 500 nM,"Cc1ccc(NC(=O)c2cccc(C(C)(C)C#N)c2)cc1Nc1ncc2nc(NC(=O)C3CC3)sc2n1 [Example D25, 3-(1-cyano-1-methylethyl)-N-[3-({2-[(cyclopropylcarbonyl)amino][1,3]thiazolo[5,4-d]pyrimidin-5-yl}amino)-4-methylphenyl]benzamide]"
4,< 500 nM,"CCN1CCN(CC(=O)Nc2nc3ccc(Oc4cc(NC(=O)c5cccc(C(C)(C)C#N)c5)ccc4C)nc3s2)CC1 [Example C88, 3-(1-cyano-1-methylethyl)-N-{3-[(2-{[(4-ethylpiperazin-1-yl)acetyl]amino}[1,3]thiazolo[5,4-b]pyridin-5-yl)oxy]-4-methylphenyl}benzamide]"
5,< 500 nM,"COc1ccc(NC(=O)c2cccc(C(C)(C)C#N)c2)cc1Oc1ccc2nc(NC(=O)C3CC3)sc2n1 [Example C6, 3-(1-cyano-1-methylethyl)-N-[3-({2-[(cyclopropylcarbonyl)amino][1,3]thiazolo[5,4-b]pyridin-5-yl}oxy)-4-methoxyphenyl]benzamide]"
6,< 500 nM,"Cc1ccc(NC(=O)c2cccc(C(C)(C)C#N)c2)cc1Oc1ccc2nc(NC(=O)CN3CCN(C)CC3)sc2n1 [Example C15, 3-(1-cyano-1-methylethyl)-N-{4-methyl-3-[(2-{[(4-methylpiperazin-1-yl)acetyl]amino}[1,3]thiazolo[5,4-b]pyridin-5-yl)oxy]phenyl}benzamide]"
